# Results as given in a melting point compilation (Tetko et al.; mined from patent text by program, amines drawn as free bases though some values may be those of a salt).
row,SMILES,melting point [°C]
1,Cc1cc2c(c3c1NC(=O)CC3(C)C)OC(CO)C2 (stereo not given),165 to 166
2,CCCn1nc(C(C)C)c(C(=O)OCc2cccc(C(=O)c3ccccc3)c2)c1Cc1ccc(-c2ccccc2S(=O)(=O)NC(C)(C)C)c(F)c1,35 to 45
3,CCc1cc(C(=O)C(c2ccc(O)cc2)c2ccc(O)cc2)cc(C(C)(c2ccc(O)cc2)c2ccc(O)cc2)c1,144 to 146
4,COc1cccc(C(CNC(=O)Cc2c(Cl)cncc2Cl)CC(C)C)c1 (stereo not given),98 to 99
5,COc1cc(C(=O)NS(=O)(=O)c2ccccc2)ccc1Cn1ncc2ccc(NC(=O)CC3CCCC3)cc21,167 to 169
6,CCN(CC)Cc1cccc(-c2cc(OCc3ccccc3)c3cc(OC)ccc3n2)c1,89.2 to 89.5
7,CNc1nc(Nc2ccc(OCCNC(=O)OC(C)(C)C)cc2)ncc1[N+](=O)[O-],205 to 207
8,CCOCCN(SC(Cl)(Cl)Cl)C(=N)C(Cl)(Cl)Cl,65 to 66
9,CCN(C(=O)c1ccc2nonc2c1)C1CCOCC1,102 to 104
10,Nc1cc(F)c(C2CCSCC2)c(F)c1,118 to 119
11,C[C@H](c1ccccc1)n1c(=O)c2c(Cl)cc(Cl)cc2n(Cc2ccccc2)c1=O,93 to 97
12,O=C(NC(Cc1c[nH]c2ccccc12)C(=O)Oc1c(F)c(F)c(F)c(F)c1F)OCc1ccccc1 (stereo not given),169 to 170
13,CC(=O)Oc1ccc([C@@H]2SC(C)(C)[C@H](C(=O)O)N2C(C)=O)cc1,199 to 201
14,CSc1sc(C(=O)O)c2c1-c1nc(C)sc1CC2,273 to 274
15,Cn1cnc(S(=O)(=O)N2CCn3c(c(C(N)=O)c(Cl)c3-c3ccccc3)C2)c1,260 to 263
16,CNC(=O)N1CCC(C(Nc2ccc(F)cc2)c2ccc(F)cc2)CC1 (stereo not given),86 to 90
17,CC1(C)OCCc2nc(-c3ccccc3)sc21,65 to 66
18,COc1ccc(C=Cc2cc(I)c(OC)c(OC)c2)cc1O,92 to 94
19,CCCCCCCCCCCCCCCCNC(=O)OCC(CO)OC (stereo not given),47.5 to 48
20,CC(=O)Nc1ccc2c(O)c(C(=O)NCc3ccc(Cl)cc3)cnc2c1,> 250
21,CC(C)OC(=O)c1ccc2c(c1)ncn2-c1cccc(Br)c1,102 to 104
22,CC(=O)Nc1ccc(-c2cccc(C3=NC(C)(C)Cc4ccc5c(c43)CC(C)(C)O5)c2)cc1,198 to 200
23,COn1c(=O)c2ccccc2n(-c2c(Cl)ccc(C)c2Cl)c1=O,211 to 213
24,CCC(=O)Nc1c(C)c(C)c2c(c1C)CC(C)(C)O2,146

row,SMILES,melting point [°C]
1,Cc1cn([C@H]2C=C[C@@H](O)C2)c(=O)[nH]c1=O (racemic),191 to 192
2,O=C(O)CC(NC(=O)OCc1ccccc1)C(=O)CON1C(=O)Cc2ccccc21 (stereo not given),58 to 70
3,O=C1[C@H]2CCC[C@H]2N(C(=O)CNCc2ccccc2)c2ccccc2N1Cc1ccccc1 (relative stereo),95 to 98
4,COc1cc(NC(=O)CC(C)=O)c(OC)cc1Cl,105 to 106
5,CC(=O)c1ccc(-c2ccc(O)c(Br)c2)cc1,166 to 170
6,Cc1ccccc1-c1cccc(F)c1C(=O)NCCCl,78 to 81
7,Nc1ccc(S(=O)(=O)N2CCCC(c3ccc(Cl)c(Cl)c3)=N2)cc1,232 to 234
8,CCOC(=O)[C@H](Cc1ccc(-c2c(OC)cc(CO)cc2OC)cc1)NC(=O)c1c(F)cccc1Cl,101 to 104
9,CCn1cc(-c2ccccc2)c(=O)c(-c2ccccc2)n1,124 to 125
10,CCN1c2ncc(CC(OC(C)=O)c3ccncc3)cc2C(=O)N(C)c2ccc(Cl)nc21 (stereo not given),157 to 158
11,CC(Cc1cccc(N)c1)NC=O (stereo not given),107 to 108
12,O=C(NC(=S)Nc1ccc(Cl)c(Cl)c1)c1c(Cl)cccc1Cl,240
13,CCN1CCCC1CNC(=O)c1cc(-n2cnnn2)ccc1OC (stereo not given),171 to 174
14,CCC(O)(c1ccc(OCCCN2CCC(C)CC2)cc1)c1ccccc1OC (stereo not given),82 to 83
15,CCOc1nc2c(cnn2CC)nc1C(=O)Nc1nccs1,151 to 152
16,O=C(O)c1ccc(CCCBr)cc1,120
17,CCCCCCc1oc(C=Cc2ccccc2)nc1CC(=O)O,107 to 108
18,CCc1c(C(=O)OC(C)C)ncc2[nH]c3ccc(NC(C)=S)cc3c12,158 to 160
19,CCOC(=O)c1ccc(NCCc2cccc3ccccc23)cc1,104 to 106
20,CC(=O)N(C=CC(=Nc1ccccc1)Oc1ccccc1)c1ccccc1,120
21,CN1CCC(c2cn(S(=O)(=O)c3ccccc3)c3ccc(OS(=O)(=O)c4ccccc4)cc23)CC1,123 to 127
22,COc1cc2c(Nc3ccc(Cl)cc3F)ncnc2cc1OCCn1ccccc1=O,209 to 211
23,CC(=O)OCC1OC(n2c3ncccc3c3c4c(c5c6cccnc6[nH]c5c32)C(=O)N(C)C4=O)C(OC(C)=O)C(OC(C)=O)C1OC(C)=O (stereo not given),> 300
24,ON=C1CCC(c2ccc(Cl)cc2)c2ccccc21 (stereo not given),150 to 154

row,SMILES,melting point [°C]
1,COC(=O)C(C)(N)Cc1c[nH]c2ccc(Br)cc12 (racemic),181
2,O=C(NC(=Cc1ccccc1)c1ccccc1)C(F)(F)F,148 to 150
3,Cc1cc(Cl)c(C(=O)O)c(Cl)c1,139 to 145
4,COC(=O)CCCc1cc2cc(Cl)ccc2n1S(=O)(=O)c1cccc(Cl)c1Cl,115 to 117
5,COc1ccc(N2CCN(C(=O)c3cn4cc(Cl)ccc4n3)CC2)cc1,180 to 181
6,Cc1ccc2c(c1)C(O)(c1ccc3c(c1)OCO3)C(=O)N2Cc1ccc(Cl)cc1 (stereo not given),122 to 124
7,Cc1ccc(-c2cccs2)cc1C,49 to 51
8,COc1cc2c(c(Cl)c1Cl)C(=O)C(C)(C)C2c1ccccc1 (stereo not given),146 to 148
9,O=C(NCc1cccnc1)c1cc2ccnc(Cl)c2[nH]1,189 to 191
10,CCCCSc1ccc(C2CC(=O)C(C(=O)CC)=C(O)C2)cc1 (stereo not given),79
11,COCCOc1cc(NC(=O)OC(C)(C)C)c([N+](=O)[O-])cc1I,109 to 111
12,CS(=O)(=O)c1ccc(-c2cc(Br)c3cnc(Nc4ccc(N5CCOCC5)cc4)nn23)cc1,242 to 244
13,CCN(CCCOc1ccc(C(=O)O)cc1)c1ccc(Cl)cc1,146 to 149
14,CN1C(=O)Cn2cc(C(=O)NCc3ccc(Cl)cc3)c(=O)c3cc(I)cc1c32,278 to 283
15,CC1Sc2nccn2C1(C)C(O)C=Cc1ccco1 (stereo not given),149 to 150
16,O=C1N(CCCl)CCN1C1CCCCC1,60 to 64
17,O=C(O)c1cc2sccc2nc1C(=O)O,> 380
18,CNC(=O)S(=O)(=O)Nc1sc(CC(C)C)cc1-c1ccc(Cn2c(-c3ccccc3)nc(OC)c2C=O)cc1,102 to 103
19,COc1ccc(-c2cnc(N)c(Sc3ccc(Cl)cc3)n2)cc1,154 to 155
20,COc1cccc(OC)c1CN1CCC(=O)C(C(c2ccc(F)cc2)c2ccc(F)cc2)C1 (stereo not given),125 to 126
21,CCCC1C(O)=CC(=O)N1c1ccc(C#N)c(Cl)c1 (stereo not given),156 to 158
22,CN(c1cc2c3c(c1)CCCC3(C)CCC2)c1ncc(C(=O)O)cn1,> 300
